Test results published in ChEMBL document CHEMBL6153088, “Discovery of 1,4-Disubstituted Cyclohexene Analogues as Selective GPR119 Agonists for the Treatment of Type 2 Diabetes” (J Med Chem, 2025).
Values after ≈ are worked out from the molar mass of the structure shown. Active and inactive are the calls of the source. The rule behind the calls is not given here.

Legend:
Mus musculus [1] = experiment: (§1) Anti-diabetic activity in overnight fasted male C57BL/6J mouse assessed as reduction in blood glucose level by measuring reduction in AUC […] at 30 mg/kg pre-administered with compound for 30 min followed by glucose bolus addition and measured upto 120 min by oral glucose tolerance test relative to control; format: functional; set-up: scale not given: the % may be the effect or the level left; conditions: time <= 150 min, 2.5 h
Mus musculus [2] = experiment: Anti-diabetic activity in male FATZO mouse assessed as reduction in blood glucose level by measuring reduction in AUC […] at 30 mg/kg pre-administered with compound for 30 min followed by glucose bolus addition and measured upto 120 min by oral glucose tolerance test relative to control; format: functional; set-up: scale not given: the % may be the effect or the level left; conditions: time <= 150 min, 2.5 h
Mus musculus [3] = experiment: as §1, with “at 10” for “at 30”, “mg/kg once a day” for “mg/kg”; format: functional; set-up: scale not given: the % may be the effect or the level left; conditions: time <= 150 min, 2.5 h
Mus musculus [4] = experiment: as §1, with “at 20” for “at 30”; format: functional; set-up: scale not given: the % may be the effect or the level left; conditions: time <= 150 min, 2.5 h
[5] = molecular target: T1, Glucose-dependent insulinotropic receptor (Homo sapiens, UniProt Q8TDV5); experiment: Agonist activity at human GPR119 expressed in CHO cells assessed as cAMP level measured after 90 mins by HTRF based assay; format: functional, cell-based
T1 sequence (Q8TDV5 whole entry): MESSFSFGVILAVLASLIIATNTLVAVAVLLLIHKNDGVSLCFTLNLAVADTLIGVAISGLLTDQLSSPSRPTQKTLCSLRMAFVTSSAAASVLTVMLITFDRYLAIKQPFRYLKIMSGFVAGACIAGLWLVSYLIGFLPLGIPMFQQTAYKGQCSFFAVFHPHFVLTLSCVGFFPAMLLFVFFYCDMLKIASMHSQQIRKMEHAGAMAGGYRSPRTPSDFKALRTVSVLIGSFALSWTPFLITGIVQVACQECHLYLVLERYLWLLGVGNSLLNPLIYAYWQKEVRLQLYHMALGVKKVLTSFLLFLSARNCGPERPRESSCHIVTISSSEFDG

[6] = molecular target: T1, Glucose-dependent insulinotropic receptor; experiment: Agonist activity at human GPR119; format: functional
[7] = molecular target: T1, Glucose-dependent insulinotropic receptor; experiment: Agonist activity at human GPR119 expressed in CHO-K1 cells co-transfected with pcDNA3.1 assessed as increase in cAMP level; format: functional, cell-based
[8] = Half-life in Cynomolgus monkey at 30 mg/kg, po measured upto 48 hrs by LC-MS/MS analysis; format: ADME, organism-based, Macaca fascicularis; conditions: in vivo
Cytochrome P450 1A2 = molecular target: T2, Cytochrome P450 1A2 (Homo sapiens, UniProt P05177); experiment: Inhibition of CYP1A2 in human liver microsomes using phenacetin as substrate incubated for 10 min in presence of NADPH by LC-MS/MS analysis; format: ADME, Microsome
T2 sequence (P05177 whole entry): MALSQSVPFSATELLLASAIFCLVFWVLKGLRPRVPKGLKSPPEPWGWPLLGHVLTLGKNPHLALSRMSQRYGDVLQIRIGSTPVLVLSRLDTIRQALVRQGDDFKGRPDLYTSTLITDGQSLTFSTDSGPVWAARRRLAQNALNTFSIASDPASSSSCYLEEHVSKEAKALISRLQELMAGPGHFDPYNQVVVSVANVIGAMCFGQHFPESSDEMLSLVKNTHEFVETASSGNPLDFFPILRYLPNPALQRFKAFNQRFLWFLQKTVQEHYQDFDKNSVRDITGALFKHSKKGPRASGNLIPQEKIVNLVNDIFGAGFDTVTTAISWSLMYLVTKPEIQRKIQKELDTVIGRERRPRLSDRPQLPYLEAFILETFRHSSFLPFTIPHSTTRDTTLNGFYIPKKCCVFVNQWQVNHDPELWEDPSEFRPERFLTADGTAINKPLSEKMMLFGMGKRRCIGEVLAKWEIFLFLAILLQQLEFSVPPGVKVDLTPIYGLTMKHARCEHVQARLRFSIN

[9] = Half-life in Sprague-Dawley rat at 30 mg/kg, po measured upto 48 hrs by LC-MS/MS analysis; format: ADME, organism-based; conditions: in vivo
[10] = Kinetic solubility of the compound in water; format: physicochemical; conditions: read-out: Kinetic_solubility
Cytochrome P450 2C19 = Cytochrome P450 2C19 (Homo sapiens, UniProt P33261); experiment: Inhibition of CYP2C19 in human liver microsomes using mephenytoin as substrate incubated for 45 min in presence of NADPH by LC-MS/MS analysis; format: ADME, Microsome
Sequence of Cytochrome P450 2C19 (P33261 whole entry): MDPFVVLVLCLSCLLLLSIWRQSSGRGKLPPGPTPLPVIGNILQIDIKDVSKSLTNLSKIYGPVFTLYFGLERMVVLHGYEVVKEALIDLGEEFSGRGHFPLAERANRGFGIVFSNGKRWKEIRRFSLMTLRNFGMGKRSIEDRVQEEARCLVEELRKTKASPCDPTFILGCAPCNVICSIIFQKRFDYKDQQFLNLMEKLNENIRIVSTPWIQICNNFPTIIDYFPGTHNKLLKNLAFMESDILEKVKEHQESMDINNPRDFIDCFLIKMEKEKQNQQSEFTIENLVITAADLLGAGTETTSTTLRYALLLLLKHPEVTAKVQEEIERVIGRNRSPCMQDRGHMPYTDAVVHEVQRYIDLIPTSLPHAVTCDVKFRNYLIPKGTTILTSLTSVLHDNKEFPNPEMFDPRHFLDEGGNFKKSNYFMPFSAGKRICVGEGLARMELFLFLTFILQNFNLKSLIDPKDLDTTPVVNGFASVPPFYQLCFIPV

Mus musculus [11] = experiment: Anti-diabetic activity in male db/db mouse assessed as reduction in blood glucose level administered twice a day preincubated with compound for 30 min followed by glucose bolus addition and measured upto 120 min by oral glucose tolerance test; format: functional, organism-based; conditions: dose 30-30 mg/kg, time <= 150.0 min
[12] = Microsomal stability in human liver microsome assessed as compound remaining measured upto 45 min in presence of NADPH by LC-MS analysis; format: ADME; conditions: liver microsomes, read-out: Stability
[13] = Lipophilicity, logP of compound; format: physicochemical; conditions: octanol/water
INS1 = experiment: Induction of insulin secretion in glucose treated INS1 cells at 0.1 to 1 uM measured after 1 hr by ELISA method; format: functional, cell-based; conditions: Rattus norvegicus, dose 0.1-1 µM
Cytochrome P450 3A4 = Cytochrome P450 3A4 (Homo sapiens, UniProt P08684); experiment: Inhibition of CYP3A4 in human liver microsomes using midazolam as substrate incubated for 5 min in presence of NADPH by LC-MS/MS analysis; format: ADME, Microsome
Sequence of Cytochrome P450 3A4 (P08684 whole entry): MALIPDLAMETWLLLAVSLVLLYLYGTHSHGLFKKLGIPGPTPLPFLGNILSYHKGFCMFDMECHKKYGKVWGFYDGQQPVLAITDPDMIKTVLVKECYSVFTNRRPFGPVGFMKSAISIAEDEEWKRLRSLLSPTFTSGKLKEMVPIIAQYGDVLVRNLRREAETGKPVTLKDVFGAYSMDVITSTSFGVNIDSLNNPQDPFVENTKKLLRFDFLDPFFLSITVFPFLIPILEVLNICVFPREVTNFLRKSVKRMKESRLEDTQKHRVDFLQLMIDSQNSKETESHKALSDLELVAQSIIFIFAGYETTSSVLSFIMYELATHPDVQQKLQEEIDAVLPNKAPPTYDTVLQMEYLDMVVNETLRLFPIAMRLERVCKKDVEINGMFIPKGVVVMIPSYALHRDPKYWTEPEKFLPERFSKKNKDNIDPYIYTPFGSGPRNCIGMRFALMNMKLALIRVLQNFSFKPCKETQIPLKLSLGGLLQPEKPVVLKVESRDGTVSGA

[14] = Microsomal stability in rat liver microsome assessed as compound remaining measured upto 45 min in presence of NADPH by LC-MS analysis; format: ADME; conditions: liver microsomes, read-out: Stability
[15] = Induction of GLP-1 secretion in human NCI-H716 cells assessed as fold change at 10 uM measured after 1 hr by ELISA method; format: functional
[16] = Oral bioavailability in Sprague-Dawley rat at 30 mg/kg measured upto 48 hrs by LC-MS/MS analysis; format: ADME, organism-based; conditions: in vivo
Rattus norvegicus [17] = experiment: Antidiabetic activity high-fat diet induced obese female Sprague-Dawley rat model assessed as reduction in fasting glucose levels at 3 to 30 mg/kg measured after 37 days by oral glucose tolerance test; format: functional, organism-based; conditions: dose 3-30 mg/kg, time 37.0 day
[18] = molecular target: Voltage-gated inwardly rectifying potassium channel KCNH2 (Homo sapiens, UniProt Q12809); experiment: Inhibition of human ERG incubated for 150 min by fluorescence polarization based microplate reader analysis; format: toxicity
Sequence of Voltage-gated inwardly rectifying potassium channel KCNH2 (Q12809 whole entry): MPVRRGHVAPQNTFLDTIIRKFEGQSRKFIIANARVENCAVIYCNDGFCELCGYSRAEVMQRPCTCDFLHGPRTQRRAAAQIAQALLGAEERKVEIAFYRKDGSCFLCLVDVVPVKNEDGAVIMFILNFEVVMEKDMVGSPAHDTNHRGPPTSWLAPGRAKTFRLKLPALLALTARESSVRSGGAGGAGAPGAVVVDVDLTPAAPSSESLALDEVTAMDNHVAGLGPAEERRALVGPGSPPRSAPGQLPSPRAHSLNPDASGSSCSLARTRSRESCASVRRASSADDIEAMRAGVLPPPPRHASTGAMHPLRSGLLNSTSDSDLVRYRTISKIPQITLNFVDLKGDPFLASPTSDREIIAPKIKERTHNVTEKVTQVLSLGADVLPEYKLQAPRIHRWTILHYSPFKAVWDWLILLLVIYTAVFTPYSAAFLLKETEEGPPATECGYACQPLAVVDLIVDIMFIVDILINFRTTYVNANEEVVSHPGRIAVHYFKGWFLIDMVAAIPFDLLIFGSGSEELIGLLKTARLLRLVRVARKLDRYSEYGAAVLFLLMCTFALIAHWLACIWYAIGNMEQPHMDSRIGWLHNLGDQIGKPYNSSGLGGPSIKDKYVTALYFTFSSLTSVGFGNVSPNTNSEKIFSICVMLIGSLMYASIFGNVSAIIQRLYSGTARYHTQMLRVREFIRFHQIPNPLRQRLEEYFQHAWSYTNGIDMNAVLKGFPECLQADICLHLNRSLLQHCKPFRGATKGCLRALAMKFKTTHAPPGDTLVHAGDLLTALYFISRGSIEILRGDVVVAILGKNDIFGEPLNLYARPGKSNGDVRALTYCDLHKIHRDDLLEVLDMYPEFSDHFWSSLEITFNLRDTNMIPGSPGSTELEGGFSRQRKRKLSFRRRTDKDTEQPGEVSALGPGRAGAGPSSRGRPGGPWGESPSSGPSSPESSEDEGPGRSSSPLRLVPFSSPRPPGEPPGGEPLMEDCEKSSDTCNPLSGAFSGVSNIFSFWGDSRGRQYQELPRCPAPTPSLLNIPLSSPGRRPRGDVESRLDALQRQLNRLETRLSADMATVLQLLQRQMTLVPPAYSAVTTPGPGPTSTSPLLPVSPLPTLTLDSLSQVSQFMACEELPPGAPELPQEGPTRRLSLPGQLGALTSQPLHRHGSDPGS

Cytochrome P450 2D6 = Cytochrome P450 2D6 (Homo sapiens, UniProt P10635); experiment: Inhibition of CYP2D6 in human liver microsomes using dextromethorphan as substrate incubated for 20 min in presence of NADPH by LC-MS/MS analysis; format: ADME, Microsome
Sequence of Cytochrome P450 2D6 (P10635 whole entry): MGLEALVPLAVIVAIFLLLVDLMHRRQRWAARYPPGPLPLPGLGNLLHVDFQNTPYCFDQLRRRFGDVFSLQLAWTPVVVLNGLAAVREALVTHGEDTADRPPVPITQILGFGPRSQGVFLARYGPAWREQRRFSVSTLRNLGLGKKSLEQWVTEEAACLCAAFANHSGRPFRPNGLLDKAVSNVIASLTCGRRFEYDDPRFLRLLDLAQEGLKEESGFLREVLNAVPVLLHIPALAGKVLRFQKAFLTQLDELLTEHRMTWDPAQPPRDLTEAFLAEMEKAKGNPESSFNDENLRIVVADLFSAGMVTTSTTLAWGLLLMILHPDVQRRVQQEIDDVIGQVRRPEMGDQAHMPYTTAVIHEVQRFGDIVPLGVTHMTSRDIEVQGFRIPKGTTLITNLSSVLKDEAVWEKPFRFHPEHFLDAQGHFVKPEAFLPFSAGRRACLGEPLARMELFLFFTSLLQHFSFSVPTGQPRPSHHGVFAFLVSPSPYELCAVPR

[19] = Oral bioavailability in Cynomolgus monkey at 30 mg/kg measured upto 48 hrs by LC-MS/MS analysis; format: ADME, organism-based, Macaca fascicularis; conditions: in vivo
[20] = Dissociation constant, pKa of compound; format: physicochemical
Rattus norvegicus [21] = experiment: Antidiabetic activity in high-fat diet induced obese female Sprague-Dawley rat model assessed as hypoglycemic effect at 3 to 30 mg/kg administered once daily for 5 weeks by oral glucose tolerance test; format: functional, organism-based; conditions: dose 3-30 mg/kg
[22] = Half-life in Beagle dog at 10 mg/kg, po measured upto 48 hrs by LC-MS/MS analysis; format: ADME, organism-based, Canis lupus familiaris; conditions: in vivo
Cytochrome P450 2C9 = Cytochrome P450 2C9 (Homo sapiens, UniProt P11712); experiment: Inhibition of CYP2C9 in human liver microsomes using diclofenac as substrate incubated for 10 min in presence of NADPH by LC-MS/MS analysis; format: ADME, Microsome
Sequence of Cytochrome P450 2C9 (P11712 whole entry): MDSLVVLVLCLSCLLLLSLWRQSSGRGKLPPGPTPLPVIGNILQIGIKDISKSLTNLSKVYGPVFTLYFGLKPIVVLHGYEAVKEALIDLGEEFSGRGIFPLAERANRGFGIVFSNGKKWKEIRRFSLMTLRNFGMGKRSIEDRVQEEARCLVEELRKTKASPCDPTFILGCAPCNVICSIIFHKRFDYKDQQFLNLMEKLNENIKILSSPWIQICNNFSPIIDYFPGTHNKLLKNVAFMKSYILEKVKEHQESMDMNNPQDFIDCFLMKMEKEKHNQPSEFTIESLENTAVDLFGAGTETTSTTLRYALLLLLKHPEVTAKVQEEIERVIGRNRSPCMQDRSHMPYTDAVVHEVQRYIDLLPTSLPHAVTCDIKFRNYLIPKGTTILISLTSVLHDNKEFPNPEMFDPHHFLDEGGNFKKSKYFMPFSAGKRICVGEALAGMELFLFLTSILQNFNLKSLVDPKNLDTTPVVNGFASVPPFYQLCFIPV

[23] = Microsomal stability in dog liver microsome assessed as compound remaining measured upto 45 min in presence of NADPH by LC-MS analysis; format: ADME, Canis lupus familiaris; conditions: liver microsomes, read-out: Stability
[24] = Induction of GLP-1 secretion in human NCI-H716 cells assessed as fold change at 30 uM measured after 1 hr by ELISA method; format: functional
Rattus norvegicus [25] = experiment: Antidiabetic activity high-fat diet induced female Sprague-Dawley rat model assessed as reduction in body weight at 3 to 30 mg/kg measured after 28 days by oral glucose tolerance test; format: functional, organism-based; conditions: dose 3-30 mg/kg, time 28.0 day

Work on `N[C@@H](CC(=O)N1CCn2c(nnc2C(F)(F)F)C1)Cc1cc(F)c(F)cc1F` [SITAGLIPTIN] yielded an Activity (Mus musculus [1]) of 22%, an Activity (Mus musculus [2]) of 17.5% and an Activity (Mus musculus [3]) of 20.5%.
`CCc1cnc(N2CCC(COc3ccc(C4=CCC(C(=O)N5CCOCC5)CC4)cc3)CC2)nc1` (stereo unspecified) showed an Activity (Mus musculus [4]) of 15.7% and an EC50 [5] of 0.013 µM.
Work on `CC(C)(C)OC(=O)N1CCC(COc2ccc(C3=CCC(C(=O)N4CCOCC4)CC3)cc2)CC1` (stereo unspecified) yielded an Activity (Mus musculus [4]) of 10.2% and an EC50 [5] of 0.013 µM.
With `CCc1cnc(N2CCC(CCCOc3cc(F)c(-c4noc(C(C)C)n4)c(F)c3)CC2)nc1` the EC50 [6] was 0.014 µM.
In the case of `CC(C)c1noc(N2CCC(COc3ccc(C4=CCC(C(=O)N5CCCC5)CC4)cc3)CC2)n1` (stereo unspecified), the Activity (Mus musculus [4]) is reported as 5.9% and the EC50 [5] is reported as 0.055 µM.
In the case of `CC(C)c1noc(N2CCC(COc3ccc(C4=CCC(C(=O)N5CCC5)CC4)cc3)CC2)n1` (stereo unspecified), the Activity (Mus musculus [4]) is reported as 4.2% and the EC50 [5] is reported as 0.041 µM.
`CC(C)c1noc(N2CCC(COc3ccc(C4=CCC(C(=O)N5CCOCC5)CC4)cc3)CC2)n1` (stereo unspecified) showed an Activity (Mus musculus [4]) of 4.1% and an EC50 [5] of 0.018 µM.
Work on `CCc1cnc(N2CCC(COc3ccc(C4=CCC(C(=O)N5CC[C@H](O)C5)CC4)cc3)CC2)nc1` (stereo partly specified) yielded an Activity (Mus musculus [4]) of 7.2% and an EC50 [5] of 0.026 µM.
For `CCc1cnc(N2CCC(COc3ccc(C4=CCC(C(=O)N5CC[C@@H](CO)C5)CC4)cc3)CC2)nc1` (stereo partly specified), the Activity (Mus musculus [4]) was 7.6% and the EC50 [5] was 0.043 µM.
Compound `CCc1cnc(N2CCC(COc3ccc(C4=CCC(C(=O)N5CCC(=O)C5)CC4)cc3)CC2)nc1` (stereo unspecified) has an Activity (Mus musculus [4]) of 12.7% and an EC50 [5] of 0.012 µM.
For `CCOC(=O)C1CC=C(c2ccc(OCC3CCN(C(=O)OC(C)(C)C)CC3)cc2)CC1` (stereo unspecified), the EC50 [5] was 0.053 µM.
For `CC[C@@H](Oc1ccc(C(=O)C2CC2)cc1)c1nc(-c2ccc(C(=O)N[C@H](C)CO)c(F)c2)no1` [FIRUGLIPEL], the EC50 [7] was 0.051 µM.
Work on `CCc1cnc(N2CCC(COc3ccc(C4=CC[C@@H](C(=O)N5CCC[C@@H]5CO)CC4)cc3)CC2)nc1` yielded an EC50 [5] of 0.032 µM.
In the case of `CCc1cnc(N2CCC(COc3ccc(C4=CCC(C(=O)N5CC(O)C5)CC4)cc3)CC2)nc1` (stereo unspecified), the Activity (Mus musculus [4]) is reported as 12.3% and the EC50 [5] is reported as 0.07 µM.
For `CCc1cnc(N2CCC(COc3ccc(C4=CC[C@H](C(=O)N5CCC[C@@H]5CO)CC4)cc3)CC2)nc1`, the half-life [8] was 11.7 h, the IC50 (Cytochrome P450 1A2) was over 10 µM and the Activity (Mus musculus [2]) was 22.9%. For the same compound, the half-life [9] was 5.4 h, the solubility kinetic [10] was 176 µM (≈ 88.8 µg/mL) and the IC50 (Cytochrome P450 2C19) was over 10 µM. The Activity (Mus musculus [11]) was “Dose-dependent-effect; Superior Compared To Sitagliptin”, the remaining at 0.75 h [12] was 53.8% and the logP [13] was 3.45. The Activity (INS1) was “Active”, the IC50 (Cytochrome P450 3A4) was over 10 µM and the remaining at 0.75 h [14] was 48.3%. The “fold change (FC)” value [15] was 1.7, the bioavailability [16] was 28.3% and the Activity (Rattus norvegicus [17]) was “Active”. For the same compound, the IC50 [18] was over 100 µM, the IC50 (Cytochrome P450 2D6) was over 10 µM and the bioavailability [19] was 31.6%. For the same compound, the pKa [20] was 2.49, the Activity (Rattus norvegicus [21]) was “Active; Strong Glucose Tolerant Ability” and the half-life [22] was 17.2 h. The IC50 (Cytochrome P450 2C9) was over 10 µM, the remaining at 0.75 h [23] was 62.4% and the “fold change (FC)” value [24] was 1.8. The EC50 [5] was 0.0038 µM and the Activity (Rattus norvegicus [25]) was “Active; Significant Reduction In Body Weight”.
